{"source": "patent US20260373132A1", "about": "“PERK INHIBITORHC-5404 IN COMBINATION WITH ANTI-PD-1 ANTIBODY AND/OR AN ANTIANGIOGENETIC AGENT FOR USE IN THE TREATMENT OF CANCER” (HIBERCELL, INC., priority 2022, published 2026)", "assay_type_in_all_cases": "in vivo, mouse", "key": {"Caki-1 RCC xenograft": {"tested_on": "Caki-1 RCC xenograft", "experiment": "Caki-1 RCC xenograft tumor growth", "method": "(§1) Xenograft RCC models were generated as follows: Female NOD.SCID mice (6-8 weeks of age) were injected with A498 RCC cells (5×10^6 cells/mouse), female Balb/c Nude mice (6-8 weeks old) were implanted with 786-O RCC cells (5×10^6 cells/mouse) or Caki-1 RCC cells (6×10^6 cells/mouse), female Athymic Nude-Foxn1nu mice (7-8 weeks of age) were implanted with MFE280 endometrial cells (10×10^6 cells/mouse). Cells were implanted into the flank of animals.\n(§2) Once tumor tumors reached volume of typically 150-250 mm^3, animals were randomized by tumor volume into the treatment groups of 8 or 10 animals per group. In the single animal trial with RCC PDX models, only one animal per group was enrolled.\nBody weight and tumor volume were measured twice weekly. Tumor volume was calculated using the formula [tumor volume (mm^3)=π/6×length×width^2] and plotted as means+SEM. The percentage of tumor growth inhibition was calculated at the end of the study using the formula: […], if ΔT>0, ΔT, mean tumor volume of the drug-treated group on the observation day of the study—mean tumor volume of the drug-treated group on initial day of dosing; ΔC, mean tumor volume of the control group on the observation day of the study—mean tumor volume of the control group on initial day of dosing. Regression was calculated using the formula=100×ΔT/Tinitial, if ΔT<0. Animals with >50% regressions were partial responders. Animals with tumor volume of 0 (no measurable tumor) were considered as complete responders, and animals with <50% tumor regression and 30% growth over the baseline were considered as stable disease. Animals with tumors>30% increase over the baseline were considered progressive disease. The % change in body weight was calculated by the formula (body weight on observation day−body weight on initial day)/body weight on initial day×100%."}, "[1]": {"tested_on": "MB49 syngeneic bladder cancer model", "experiment": "MB49 syngeneic bladder cancer tumor growth", "method": "C57BL/6 mice were subcutaneously inoculated with MB49 cells, and treatment started on day 8 post cell inoculation. A group of animals (n=10/group) received either vehicle, HC-5404 (PO, BID) (3 mg/kg, 10 mg/kg, or 30 mg/kg), 5 mg/kg anti-PD-1 antibody (aPD-1) (RMP1-14) (IP, BIW), or the combination of both. At various timepoints, animals were sacrificed, and flow cytometry was performed on blood or single cell suspensions from tumors or lymph nodes (n=6).\nMB49 (lot #18B016) mouse urothelial carcinoma cell line was purchased from Sigma—The European Collection of Authenticated Cell Cultures (ECACC). Cells were free of human and animal pathogens as tested by h-IMPACT-I and IMPACT-III (IDEXX Bioresearch, Columbia, MO). Additionally, the genetic profile of the cells matched with the ECACC reference standard as tested by STR based DNA fingerprinting assay. Cells were maintained in DMEM with 10% FBS, and cultured up to 4 passages prior to implantation. Cells were harvested at ~80% confluence, washed twice with DMEM without FBS and suspended in DMEM without FBS at 5×10^6 cells/mL for implantation.\n[…] (7-8 week of age) were implanted into the right flank area subcutaneously under Isoflurane anesthesia with 0.5×10^6 MB49 cells/mouse in a total volume of […] on Day 0. Animals were randomized into treatment groups when the average tumor volume reached ~50 mm^3 on Day 5 post inoculation.\nTumor volume was measured twice weekly.\nTumor volume was calculated using the formula [tumor volume (mm^3)=π/6×length×width^2) and plotted as means±SEM. The % T/C (ratio between the tumor volume in the treated group and in the control group) was calculated by the formula 100×ΔT/ΔC, if ΔT>0 of the mean values. ΔT, mean tumor volume of the drug-treated group on the observation day of the study—mean tumor volume of the drug-treated group on initial day of dosing; ΔC, mean tumor volume of the control group on the observation day of the study—mean tumor volume of the control group on initial day of dosing. Regression was calculated using the formula=100×ΔT/Tinitial, if ΔT<0. Animals with <14 mm^3 tumor volume for three consecutive measurements were considered as complete responders and tumors with >50% regressions were partial responders.\nThis example investigated the effect of HC-5404, aPD-1, and HC-5404 in combination with aPD-1 on myeloid cells in tumor microenvironment and T-cell activation following procedures analogous to those described above using MB49 syngeneic model. […] Mice with established syngeneic MB49 tumors were randomized 6 days post tumor inoculation into groups that received either vehicle (0.5% methylcellulose in water, BID, PO), HC-5404 (10 or 30 mg/kg, BID, PO), anti-PD-1 Ab (10 mg/kg, BIW), or both HC-5404 and anti-PD-1."}, "[2]": {"tested_on": "MFE280 endometrial cancer model", "experiment": "MFE280 endometrial xenograft tumor growth", "conditions": "single agent: HC-5404 30 mg/kg PO BID or lenvatinib 10 mg/kg QD (FIG. 77)", "method": "as §1, §2\nBody weight and tumor volume were measured twice weekly. Tumor volume was calculated using the formula [tumor volume (mm^3)=π/6×length×width^2] and plotted as means+SEM. The percentage of tumor growth inhibition was calculated at the end of the study using the formula: 100−[1−(ΔT/ΔC)], if ΔT>0, ΔT, mean tumor volume of the drug-treated group on the observation day of the study—mean tumor volume of the drug-treated group on initial day of dosing; ΔC, mean tumor volume of the control group on the observation day of the study—mean tumor volume of the control group on initial day of dosing. Regression was calculated using the formula=100×ΔT/Tinitial, if ΔT<0. […]"}, "[3]": {"tested_on": "786-O xenografts progressed on axitinib", "experiment": "growth of 786-O xenografts that progressed on axitinib", "conditions": "single agent 30 mg/kg PO BID, 28 days after progression on axitinib (FIG. 40)", "description": "After 14 days of treatments, 77 mice bearing the largest tumors were rerandomized into four PD arms (n=8), four efficacy arms (n=10), and 5 tumors sampled on day of rerandomization as a baseline. The remaining animals were removed from study.\nDespite initial responses to VEGFR-TKI therapy, tumor regrowth necessitates subsequent rounds of alternate therapies to improve patient outcomes."}, "pPERK in 786-O tumors": {"tested_on": "pPERK in 786-O tumors", "experiment": "pPERK in 786-O tumor xenografts"}}}
{"smiles": "Cc1cc(NC(=O)[C@H](O)c2cc(F)cc(F)c2)ccc1-c1cnc(N)c(C(=O)NC(C)C)c1", "note": "[HC-5404, (R)-2-amino-5-(4-(2-(3,5-difluorophenyl)-2-hydroxyacetamido)-2-methylphenyl)-N-isopropylnicotinamide]", "values": [{"measurement": "effect on growth of Caki-1 model", "setting": "Caki-1 RCC xenograft; 10 and 30 mg/kg PO BID tested, 28 days (FIG. 36)", "result": "minimal effect"}, {"measurement": "sensitivity of Caki-1 to monotherapy", "setting": "Caki-1 RCC xenograft; HC-5404 or sunitinib monotherapy, compared with A498 (FIG. 32)", "result": "far less sensitive"}, {"measurement": "TGI %", "setting": "[1]; Experiment #1, HC-5404 30 mpk, aPD-1, alone or combined", "result": 52.99, "unit": "%"}, {"measurement": "TGI %", "setting": "[1]; Experiment #2, HC-5404 30 mpk, aPD-1, alone or combined", "result": 10.64, "unit": "%"}, {"measurement": "tumor growth inhibition (TGI)", "setting": "[1]; HC-5404 PO BID, aPD-1 5 mg/kg IP BIW, alone or combined", "result": 32, "unit": "%"}, {"measurement": "TGI %, average", "setting": "[1]; average of two independent studies, HC-5404 30 mpk, aPD-1, alone or combined", "result": 31.82, "unit": "%"}, {"measurement": "TGI %", "setting": "[2]", "result": "~ 37%"}, {"measurement": "tumor growth inhibition relative to vehicle", "setting": "[3]", "result": 47, "unit": "%"}, {"measurement": "pPERK expression in 786-O", "setting": "pPERK in 786-O tumors; 30 mg/kg PO BID, seven days (FIG. 30)", "result": "strongly inhibited pPERK expression"}, {"measurement": "time of return of pPERK to baseline in 786-O tumors", "setting": "pPERK in 786-O tumors; 30 mg/kg, post dose", "result": "≤ 8", "unit": "h"}, {"measurement": "pPERK levels in 786-O", "setting": "pPERK in 786-O tumors; DC-101 study, 4 days of treatment (FIG. 37)", "result": "inhibited the pPERK signal"}, {"measurement": "inhibition at 30 mg/kg", "setting": "pPERK in 786-O tumors; Mus musculus, 786-0, 30 mg/kg, 1 h post dose", "result": "~90", "unit": "%"}, {"measurement": "VEGFR-TKI-induced pPERK accumulation in 786-O tumors", "setting": "pPERK in 786-O tumors; PD arm, 7 days, HC-5404 in combination with VEGFR-TKIs", "result": "inhibited by the addition of HC-5404"}]}
